IC50 data for 16 molecules are collected here from patent publication US12291519B2, “2-hydroxycycloalkane-1-carbamoyl” (Idorsia Pharmaceuticals Ltd, priority 2019, dated 2025).

One assay deals with human Gal-3 (hGal-3) (Homo sapiens (Human), UniProt P17931). Put plainly: Competitive binding assay: biotinylated hGal-3 binding to microplate-adsorbed asialofetuin (ASF). The following applies: Activity on hGal-3; binding of biotinylated hGal-3 to ASF-coated plates; mean values. An outline of the steps:
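Serially diluted compounds competed with biotinylated human Gal-3 for binding to plate-adsorbed asialofetuin over 3 h at 4 °C. Bound Gal-3 was detected with streptavidin-peroxidase (80 ng/mL, 1 h, 4 °C) and ABTS substrate. IC50 values are means of several measurements.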

The target in the next assay is human Gal-1 (hGal-1). Description: Competitive binding assay: biotinylated hGal-1 binding to microplate-adsorbed asialofetuin (ASF). As to conditions: Activity on hGal-1; binding of biotinylated hGal-1 to ASF-coated plates; mean values. In a few lines: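 Biotinylated hGal-1 (300–1000 ng/mL; optionally a cysteine-free all-serine variant) incubated 3 h at 4 °C with compound on asialofetuin-coated plates, then streptavidin-peroxidase 1 h at 4 °C. ABTS readout at OD 410 nm after 30–45 min; IC50 given as mean of several runs.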
human Gal-1 (hGal-1), sequence (P09382 2-135 limits assumed): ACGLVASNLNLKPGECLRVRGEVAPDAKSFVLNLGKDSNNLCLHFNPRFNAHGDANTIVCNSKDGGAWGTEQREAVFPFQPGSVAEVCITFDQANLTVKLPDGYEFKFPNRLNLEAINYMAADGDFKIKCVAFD

human Gal-3 (hGal-3), sequence (P17931 whole entry): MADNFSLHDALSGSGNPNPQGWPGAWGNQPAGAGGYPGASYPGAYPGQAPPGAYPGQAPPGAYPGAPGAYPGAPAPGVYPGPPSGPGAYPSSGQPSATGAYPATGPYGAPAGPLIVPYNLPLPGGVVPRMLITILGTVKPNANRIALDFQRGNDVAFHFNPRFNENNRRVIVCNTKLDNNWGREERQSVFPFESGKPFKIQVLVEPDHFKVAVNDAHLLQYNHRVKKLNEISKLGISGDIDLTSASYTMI

As usually defined, the IC50 is the concentration that gives 50% inhibition. A low value points to higher potency. `CO[C@@H]1[C@@H](n2cc(-c3cc(F)c(C)c(F)c3)nn2)[C@@H](O)[C@@H](CO)O[C@H]1C(=O)N(c1cc(F)cc(C#N)c1)[C@H]1CCCC[C@@H]1O` [Example 161, (2R,3R,4S,5R,6R)-N-(3-cyano-5-fluorophenyl)-4-(4-(3,5-difluoro-4-methylphenyl)-1H-1,2,3-triazol-1-yl)-5-hydroxy-N-((1S,2S)-2-hydroxycyclohexyl)-6-(hydroxymethyl)-3-methoxytetrahydro-2H-pyran-2-carboxamide]: the concentration for half-maximal inhibition (IC50) on human Gal-3 (hGal-3) came out at 25 nM; at human Gal-1 (hGal-1) it was 2170 nM.

`CO[C@@H]1[C@@H](n2cc(-c3ccc(F)c(F)c3)nn2)[C@@H](O)[C@@H](CO)O[C@H]1C(=O)N(c1cc(Cl)cc(Cl)c1)[C@H]1CCCC[C@@H]1O` [Example 162, (2R,3R,4S,5R,6R)-N-(3,5-dichlorophenyl)-4-(4-(3,4-difluorophenyl)-1H-1,2,3-triazol-1-yl)-5-hydroxy-N-((1S,2S)-2-hydroxycyclohexyl)-6-(hydroxymethyl)-3-methoxytetrahydro-2H-pyran-2-carboxamide]: the IC50 at human Gal-3 (hGal-3) is 32 nM; on human Gal-1 (hGal-1), 134 nM.

Consider `CO[C@@H]1[C@@H](n2cc(-c3ccc(Br)c(F)c3)nn2)[C@@H](O)[C@@H](CO)O[C@H]1C(=O)N(c1cc(Cl)cc(Cl)c1)[C@H]1CCCC[C@@H]1O` [Example 163, (2R,3R,4S,5R,6R)-4-(4-(4-bromo-3-fluorophenyl)-1H-1,2,3-triazol-1-yl)-N-(3,5-dichlorophenyl)-5-hydroxy-N-((1S,2S)-2-hydroxycyclohexyl)-6-(hydroxymethyl)-3-methoxytetrahydro-2H-pyran-2-carboxamide], for which the half-maximal inhibitory concentration (IC50) came out at 18 nM at human Gal-3 (hGal-3) and 1270 nM on human Gal-1 (hGal-1).

As to `CO[C@@H]1[C@@H](n2cc(-c3ccc(Br)c(F)c3)nn2)[C@@H](O)[C@@H](CO)O[C@H]1C(=O)N(c1ccc(F)c(F)c1)[C@H]1CCCC[C@@H]1O` [Example 164, (2R,3R,4S,5R,6R)-4-(4-(4-bromo-3-fluorophenyl)-1H-1,2,3-triazol-1-yl)-N-(3,4-difluorophenyl)-5-hydroxy-N-((1S,2S)-2-hydroxycyclohexyl)-6-(hydroxymethyl)-3-methoxytetrahydro-2H-pyran-2-carboxamide], the half-inhibitory concentration (IC50) at human Gal-3 (hGal-3) turned out to be 58 nM; on human Gal-1 (hGal-1) it was 1940 nM.

For the molecule `CO[C@@H]1[C@@H](n2cc(-c3ccc(Br)c(F)c3)nn2)[C@@H](O)[C@@H](CO)O[C@H]1C(=O)N(c1cc(Cl)cc(C#N)c1)[C@H]1CCCC[C@@H]1O` [Example 165, (2R,3R,4S,5R,6R)-4-(4-(4-bromo-3-fluorophenyl)-1H-1,2,3-triazol-1-yl)-N-(3-chloro-5-cyanophenyl)-5-hydroxy-N-((1S,2S)-2-hydroxycyclohexyl)-6-(hydroxymethyl)-3-methoxytetrahydro-2H-pyran-2-carboxamide], the IC50 at human Gal-3 (hGal-3) is 34 nM; at human Gal-1 (hGal-1), 792 nM.

Take `CO[C@@H]1[C@@H](n2cc(-c3cc(F)c(Cl)c(Cl)c3)nn2)[C@@H](O)[C@@H](CO)O[C@H]1C(=O)N(c1cc(Cl)cc(Cl)c1)[C@H]1CCCC[C@@H]1O` [Example 166, (2R,3R,4S,5R,6R)-4-(4-(3,4-dichloro-5-fluorophenyl)-1H-1,2,3-triazol-1-yl)-N-(3,5-dichlorophenyl)-5-hydroxy-N-((1S,2S)-2-hydroxycyclohexyl)-6-(hydroxymethyl)-3-methoxytetrahydro-2H-pyran-2-carboxamide]: the 50% inhibitory concentration (IC50) on human Gal-3 (hGal-3) turned out to be 22 nM; on human Gal-1 (hGal-1) it was 1340 nM.

`CO[C@@H]1[C@@H](n2cc(-c3cc(F)c(Cl)c(Cl)c3)nn2)[C@@H](O)[C@@H](CO)O[C@H]1C(=O)N(c1ccc(F)c(F)c1)[C@H]1CCCC[C@@H]1O` [Example 167, (2R,3R,4S,5R,6R)-4-(4-(3,4-dichloro-5-fluorophenyl)-1H-1,2,3-triazol-1-yl)-N-(3,4-difluorophenyl)-5-hydroxy-N-((1S,2S)-2-hydroxycyclohexyl)-6-(hydroxymethyl)-3-methoxytetrahydro-2H-pyran-2-carboxamide]: the values for the IC50 at human Gal-3 (hGal-3) and at human Gal-1 (hGal-1) were 64 nM and 1240 nM, respectively.

Turning to `CO[C@@H]1[C@@H](n2cc(-c3cc(F)c(Cl)c(Cl)c3)nn2)[C@@H](O)[C@@H](CO)O[C@H]1C(=O)N(c1ccc2ncsc2c1)[C@H]1CCCC[C@@H]1O` [Example 168, (2R,3R,4S,5R,6R)-N-(benzo[d]thiazol-6-yl)-4-(4-(3,4-dichloro-5-fluorophenyl)-1H-1,2,3-triazol-1-yl)-5-hydroxy-N-((1S,2S)-2-hydroxycyclohexyl)-6-(hydroxymethyl)-3-methoxytetrahydro-2H-pyran-2-carboxamide], the figures for the concentration for half-maximal inhibition (IC50) on human Gal-3 (hGal-3) and at human Gal-1 (hGal-1) were 25 nM and 672 nM, respectively.

Regarding `CO[C@@H]1[C@@H](n2cc(-c3ccc(C)c(F)c3)nn2)[C@@H](O)[C@@H](CO)O[C@H]1C(=O)N(c1cc(Cl)cc(C#N)c1)[C@H]1CCCC[C@@H]1O` [Example 170, (2R,3R,4S,5R,6R)-N-(3-chloro-5-cyanophenyl)-4-(4-(3-fluoro-4-methylphenyl)-1H-1,2,3-triazol-1-yl)-5-hydroxy-N-((1S,2S)-2-hydroxycyclohexyl)-6-(hydroxymethyl)-3-methoxytetrahydro-2H-pyran-2-carboxamide], the half-maximal inhibitory concentration (IC50) was 18 nM on human Gal-3 (hGal-3) and 569 nM at human Gal-1 (hGal-1).

On to `CO[C@@H]1[C@@H](n2cc(-c3ccc(C)c(F)c3F)nn2)[C@@H](O)[C@@H](CO)O[C@H]1C(=O)N(c1cc(Cl)cc(C#N)c1)[C@H]1CCCC[C@@H]1O` [Example 171, (2R,3R,4S,5R,6R)-N-(3-chloro-5-cyanophenyl)-4-(4-(2,3-difluoro-4-methylphenyl)-1H-1,2,3-triazol-1-yl)-5-hydroxy-N-((1S,2S)-2-hydroxycyclohexyl)-6-(hydroxymethyl)-3-methoxytetrahydro-2H-pyran-2-carboxamide], for which the values for the IC50 at human Gal-3 (hGal-3) and at human Gal-1 (hGal-1) were 12 nM and 238 nM, respectively.

On to `Cc1ccc(-c2cn([C@H]3[C@@H](O)[C@@H](CO)O[C@@H](C(=O)N(c4cc(Cl)cc(C#N)c4)[C@H]4CCCC[C@@H]4O)[C@@H]3OCC(=O)O)nn2)c(F)c1F` [Example 172, 2-(((2R,3R,4S,5R,6R)-2-((3-chloro-5-cyanophenyl)((1S,2S)-2-hydroxycyclohexyl)carbamoyl)-4-(4-(2,3-difluoro-4-methylphenyl)-1H-1,2,3-triazol-1-yl)-5-hydroxy-6-(hydroxymethyl)tetrahydro-2H-pyran-3-yl)oxy)acetic acid], for which the 50% inhibitory concentration (IC50) at human Gal-3 (hGal-3) came out at 11 nM; at human Gal-1 (hGal-1), 421 nM.

For the molecule `Cc1ccc(-c2cn([C@H]3[C@@H](O)[C@@H](CO)O[C@@H](C(=O)N(c4cc(Cl)cc(C#N)c4)[C@H]4CCCC[C@@H]4O)[C@@H]3OCC(=O)N3CCOCC3)nn2)c(F)c1F` [Example 173, (2R,3R,4S,5R,6R)-N-(3-chloro-5-cyanophenyl)-4-(4-(2,3-difluoro-4-methylphenyl)-1H-1,2,3-triazol-1-yl)-5-hydroxy-N-((1S,2S)-2-hydroxycyclohexyl)-6-(hydroxymethyl)-3-(2-morpholino-2-oxoethoxy)tetrahydro-2H-pyran-2-carboxamide], the IC50 at human Gal-3 (hGal-3) is 9 nM; at human Gal-1 (hGal-1), 509 nM.

For `COc1cc(F)c(F)cc1-c1cn([C@H]2[C@@H](O)[C@@H](CO)O[C@@H](C(=O)N(c3cc(Cl)cc(C#N)c3)[C@H]3CCCC[C@@H]3O)[C@@H]2OC)nn1` [Example 174, (2R,3R,4S,5R,6R)-N-(3-chloro-5-cyanophenyl)-4-(4-(4,5-difluoro-2-methoxyphenyl)-1H-1,2,3-triazol-1-yl)-5-hydroxy-N-((1S,2S)-2-hydroxycyclohexyl)-6-(hydroxymethyl)-3-methoxytetrahydro-2H-pyran-2-carboxamide], the IC50 was 40 nM at human Gal-3 (hGal-3) and 750 nM on human Gal-1 (hGal-1).

With `CO[C@@H]1[C@@H](n2cc(-c3ccc(Br)c(F)c3F)nn2)[C@@H](O)[C@@H](CO)O[C@H]1C(=O)N(c1cc(Cl)cc(C#N)c1)[C@H]1CCCC[C@@H]1O` [Example 175, (2R,3R,4S,5R,6R)-4-(4-(4-bromo-2,3-difluorophenyl)-1H-1,2,3-triazol-1-yl)-N-(3-chloro-5-cyanophenyl)-5-hydroxy-N-((1S,2S)-2-hydroxycyclohexyl)-6-(hydroxymethyl)-3-methoxytetrahydro-2H-pyran-2-carboxamide], the IC50 on human Gal-3 (hGal-3) was found to be 13 nM; at human Gal-1 (hGal-1), 386 nM.

With `CO[C@@H]1[C@@H](n2cc(-c3ccc(Br)c(F)c3F)nn2)[C@@H](O)[C@@H](CO)O[C@H]1C(=O)N(c1cc(F)cc(C#N)c1)[C@H]1CCCC[C@@H]1O` [Example 176, (2R,3R,4S,5R,6R)-4-(4-(4-bromo-2,3-difluorophenyl)-1H-1,2,3-triazol-1-yl)-N-(3-cyano-5-fluorophenyl)-5-hydroxy-N-((1S,2S)-2-hydroxycyclohexyl)-6-(hydroxymethyl)-3-methoxytetrahydro-2H-pyran-2-carboxamide], the IC50 stood at 15 nM on human Gal-3 (hGal-3) and 682 nM at human Gal-1 (hGal-1).

For `CO[C@@H]1[C@@H](n2cc(-c3ccc(Br)c(F)c3F)nn2)[C@@H](O)[C@@H](CO)O[C@H]1C(=O)N(c1cc(Cl)cc(Cl)c1)[C@H]1CCCC[C@@H]1O` [Example 177, (2R,3R,4S,5R,6R)-4-(4-(4-bromo-2,3-difluorophenyl)-1H-1,2,3-triazol-1-yl)-N-(3,5-dichlorophenyl)-5-hydroxy-N-((1S,2S)-2-hydroxycyclohexyl)-6-(hydroxymethyl)-3-methoxytetrahydro-2H-pyran-2-carboxamide], the figures for the half-inhibitory concentration (IC50) on human Gal-3 (hGal-3) and at human Gal-1 (hGal-1) were 13 nM and 852 nM, respectively.
